Results taken from paper PMC8040252, “1,2,4-Oxadiazole-Bearing Pyrazoles as Metabolically Stable Modulators of Store-Operated Calcium Entry” (ACS Medicinal Chemistry Letters, 2021).
Marks after values point to notes of the source that are not given here.

Key:
[1] = In vitro hepatic metabolic stability in MLS9 fraction with NADPH; type: in vitro ADME, mouse; conditions: after 1 h of incubation
Procedure: The five selected inhibitors (22, 27, 29, 32, and 42) and the identified SOCE enhancer (37) were then evaluated for their in vitro hepatic metabolic stability. To this aim, the candidates were incubated in MLS9 fraction supplied with NADPH and the residual substrate was measured after 1 h. Under these conditions, the oxadiazole-bearing pyrazoles resulted overall metabolically stable, with only two compounds affording a residual substrate lower than 80% and the remaining molecules higher than 90% after incubation (Table 1 and Supporting Information). In contrast, Pyr3 and CIC-37, which suffered from hydrolysis of the ester function, provided a residual substrate of 43 and 74%, respectively (Table 1).[35] Similarly, the residual substrate of Synta66 in MLM is of 15%, due to an important hydrolysis of the amide group, absent in our class (Table 1).[39]
In vitro metabolism and purity of lead compounds
In vitro metabolism studies
Mouse liver S9 (MLS9) (pooled male mouse CD-1, protein concentration: 20 mg/mL) were purchased from Corning B.V. Life Sciences (Amsterdam, The Netherlands) and used throughout this study. The standard incubation mixture (250 μL final volume) was carried out in a 50 mM TRIS (tris[hydroxymethyl]-aminomethane) + 150 mM KCl buffer (pH 7.4) containing 3.3 mM MgCl2, 1.3 mM β-NADP-Na 2, 3.3 mM glucose 6-phosphate, 0.4 Units/mL glucose 6-phosphate dehydrogenase (NADPH regenerating system), 5 μL of acetonitrile ([…]), and the substrate compounds at a concentration of 50 µM. After pre-equilibration of the mixture, an appropriate volume of MLS9 suspension was added to give a final protein concentration of 1.5 mg/mL. The mixture was shaken for 60 min at 37 °C. Each incubation was stopped by addition of 250 μL of ice-cold acetonitrile, vortexed, and centrifuged at 13000 rpm for 10 min. Control incubations were carried out without the presence of MLS9 suspension or cofactors or in absence of the substrate.
LC-UV method for purity and metabolic stability data determination: a Shimadzu HPLC system (Shimadzu, Kyoto, Japan), consisting of two LC-10AD Vp module pumps, an SLC-10A Vp system controller, an SIL-10AD Vp autosampler, and a DGU-14-A on-line degasser were used for the analysis. The SPD-M10Avp photodiode array detector was used to detect the analytes. LC-Solution 1.24 software was used to process the chromatograms.
• Column: Phenomenex Kinetex XB C18, 150 × 4.6 mm (5 µm d.p.) protected with a SecurityGuard® (Torrance, CA, USA).
A: 0.2% formic acid in water;
B: 0.2% formic acid in acetonitrile.

[2] = system: HEK cells; test: MTT cell viability assay in HEK cells; type: cell-based, human; conditions: 10 μM
Procedure: (§1) With this approach, 24 oxadiazole-bearing pyrazoles were synthesized and tested in human embryonic kidney (HEK) cells for SOCE inhibition. To this aim, intracellular Ca^2+ stores of HEK cells were emptied with t-butylhydroquinone (tBhQ, 50 μM) in the presence of the compounds at 10 μM concentration. After 600 s, Ca^2+ was added and intracellular levels were measured in fluorescence microscopy with the calcium dye Fura-2. […] For these compounds, the cell viability was therefore evaluated. An MTT assay was performed and the compounds that affected cell viability by more than 25% at 10 μM were discarded (23, 31, and 33). […] According to both activity and cytotoxicity, for the selected five compounds, the representative traces are depicted in Figure 3. […]
(§2) 3-(4,5-Dimethylthiazol-2-yl)-2,5-diphenyltetrazolium bromide (MTT) assay Hek cells were plated in 24-wells plate at 20.000 cells per well. After 24 h, cells were treated for other 24 h with the selected compounds. At the end of treatments, medium was removed and substituted by 300 µL of MTT reagent at the final concentration of 0.25 mg/mL for 60 min at 37 °C. Reactions were then stopped and the crystals were solubilized by adding isopropyl alcohol/HCl (1:1; vol:vol) (Sigma-Aldrich Inc., Italy), before reading the absorbance at 570 nm, using the multi-plate reader Victor 3V (PerkinElmer, Milan, Italy). […]
(§3) All statistical assessments were two-sided and a value of P <0.05 was considered statistically significant. Statistical analyses were performed using GraphPad Prism software (GraphPad Software, Inc., USA).

[3] = MTT cell viability assay in HEK cells; type: cell-based, human; conditions: human; for viability at 24 h, 10 µM: mean ± SEM; for cytotoxicity at 24 h, 10 µM: compounds discarded, read-out: cell viability affected by
Procedure: as §1, §2, §3

[4] = system: Store-operated calcium entry (SOCE); test: SOCE in HEK cells, tBhQ store depletion and Ca2+ re-addition, Fura-2 calcium imaging; type: cell-based, human; conditions: Homo sapiens; for activity at 10 µM: HEK293, compound 10 μM, tBhQ 50 μM, vs control, mean ± SEM of three experiments, read-out: % SOCE residual activity (10 μM); for IC50: HEK293, mean ± SEM
Procedure: With this approach, 24 oxadiazole-bearing pyrazoles were synthesized and tested in human embryonic kidney (HEK) cells for SOCE inhibition. […] After 600 s, Ca^2+ was added and intracellular levels were measured in fluorescence microscopy with the calcium dye Fura-2. […] For these compounds, the cell viability was therefore evaluated. An MTT assay was performed and the compounds that affected cell viability by more than 25% at 10 μM were discarded (23, 31, and 33). […] According to both activity and cytotoxicity, for the selected five compounds, the representative traces are depicted in Figure 3.
Human embryonic kidney (Hek) cells were obtained from ATCC (Rockville, MD, USA) and were cultured in Dulbecco’s Modified Eagle’s Medium (DMEM; Sigma-Aldrich, Italy), supplemented with 10% heat-inactivated FBS (Gibco, Italy), L-glutamine […] (Sigma-Aldrich, Italy), 10 U/mL penicillin, and […] streptomycin (Sigma-Aldrich, Italy) at 37 °C, under a 5% CO2 humidified atmosphere. […]
(KRB, 135 mM NaCl, 5 mM KCl, 0.4 mM KH2PO4, 1 mM MgSO4, 5.5 mM glucose, 20mM HEPES, pH 7.4) containing 2 mM CaCl2 (30 min, room temperature). After which, cells were washed and incubated with KRB for other 30 min to allow de-esterification of […]. To measure SOCE, cells were depleted of calcium in the endoplasmic reticulum with 2,5-t-butylhydroquinone (tBhQ, 50 […]
For calcium imaging experiments, Hek cells were plated onto pre-treated poli-L-lysine (P4832, Sigma-Aldrich, Italy) glass coverslips of 24 mm in 6-well plates Cells were loaded with 5 µM of Fura-2 AM, 0.02% of Pluronic-127 (Life technologies, Italy) and 10 µM of sulfinpyrazone (Sigma-Aldrich, Italy) in KRB containing 2 mM CaCl2 for 30 min at RT. Cells were then washed once with KRB for 15 min for de-esterification of Fura-2 AM.
Coverslips were mounted into the acquisition chamber and placed on the stage of a Leica DMI6000 epifluorescent microscope equipped with S Fluor ×40/1.3 objective. Fura-2 AM was excited by alternate 340 and 380 nm using a Polychrome IV monochromator (Till Photonics, Germany), and the probe emission light was filtered through 520/20 bandpass filter and collected by a cooled CCD camera (Hamamatsu, Japan). The fluorescence signals were acquired and processed using MetaFluor software (Molecular Device, Sunnyvale, CA, USA). To quantify the differences in the amplitudes of Ca2+ transients, the ratio values were normalized using the formula ΔF/F0. […]
In calcium imaging experiments, data are presented as Mean +/- standard error (SEM) or Median and interquartile range (IQR). The normality of data distributions was assessed using the Shapiro−Wilk test. Nonparametric (Mann−Whitney U test and one-way) statistical analysis was used for comparisons of data. All statistical assessments were two-sided and a value of P <0.05 was considered statistically significant. Statistical analyses were performed using GraphPad Prism software (GraphPad Software, Inc., USA).

Row | SMILES | viability at 24 h, 10 µM [3] [%] | activity at 10 µM [4] [%] | other results
1 | Cc1noc(-c2cnn(-c3ccc(NC(=O)c4ccc(C#N)c(F)c4)cc3)c2C(F)(F)F)n1 [compound 29] | 101 ± 6.7 | 49.6 ± 6.5 | MLS9 stability (residual substrate) [1]: 73% ^b; cytotoxicity [2]: not cytotoxic; IC50 [4]: 9.7 ± 2.3 µM
2 | Cc1noc(-c2cnn(-c3ccc(NC(=O)c4ccc(C(F)(F)F)cc4)cc3)c2C(F)(F)F)n1 [compound 25] |  | 110 ± 5.9 | 
3 | Cc1noc(-c2cnn(-c3ccc(NC(=O)c4ccc(Cl)cc4)cc3)c2C(F)(F)F)n1 [compound 23] | 72.9 ± 11.7 | 40.8 ± 3.6 | cytotoxicity at 24 h, 10 µM [3]: > 25%
4 | Cc1noc(-c2cnn(-c3ccc(NC(=O)c4ccc(C(O)(C(F)(F)F)C(F)(F)F)cc4)cc3)c2C(F)(F)F)n1 [compound 26] |  | 109 ± 6.5 | 
5 | Cc1noc(-c2cnn(-c3ccc(NC(=O)c4c(C)noc4C)cc3)c2C(F)(F)F)n1 [compound 32] | 77.7 ± 4.4 | 33.2 ± 1.9 | MLS9 stability (residual substrate) [1]: 99% ^b; cytotoxicity [2]: not cytotoxic; IC50 [4]: 9.6 ± 2.5 µM
6 | CCCCCCCCCCCC(=O)Nc1ccc(-n2ncc(-c3nc(C)no3)c2C(F)(F)F)cc1 [compound 38] |  | 53.8 ± 4.4 | 
7 | Cc1noc(-c2cnn(-c3ccc(NC(=O)c4cc(Br)c[nH]4)cc3)c2C(F)(F)F)n1 [compound 35] |  | 69.8 ± 2.9 | melting point: 205 to 206 °C
8 | Cc1noc(-c2cnn(-c3ccc(NC(=O)c4cccc(C(=O)O)c4)cc3)c2C(F)(F)F)n1 [compound 19] |  | 77.2 ± 3.7 | 
9 | Cc1noc(-c2cnn(-c3ccc(NC(=O)c4ccc([N+](=O)[O-])cc4)cc3)c2C(F)(F)F)n1 [compound 27] | 80.2 ± 7.4 | 40.8 ± 6.9 | MLS9 stability (residual substrate) [1]: >99% ^b; cytotoxicity [2]: not cytotoxic; IC50 [4]: 5.5 ± 0.8 µM
10 | Cc1noc(-c2cnn(-c3ccc(NC(=O)Cc4ccc(Cl)cc4)cc3)c2C(F)(F)F)n1 [compound 24] |  | 121 ± 2.2 | 
11 | Cc1noc(-c2cnn(-c3ccc(NC(=O)C4CCS(=O)(=O)CC4)cc3)c2C(F)(F)F)n1 [compound 40] |  | 87.5 ± 3.8 | 
12 | Cc1noc(-c2cnn(-c3ccc(NC(=O)c4ccncc4F)cc3)c2C(F)(F)F)n1 [compound 20] |  | 53.6 ± 0.9 | 
13 | Cc1noc(-c2cnn(-c3ccc(NC(=O)COc4ccccc4)cc3)c2C(F)(F)F)n1 [compound 41] |  | 63.6 ± 3.9 | 
14 | Cc1noc(-c2cnn(-c3ccc(NC(=O)CCN4CCOCC4)cc3)c2C(F)(F)F)n1 [compound 39] |  | 95.9 ± 6.2 | 
15 | Cc1noc(-c2cnn(-c3ccc(NC(=O)c4ccccc4I)cc3)c2C(F)(F)F)n1 [compound 30] |  | 53.2 ± 3.9 | 
16 | Cc1noc(-c2cnn(-c3ccc(NC(=O)c4c(F)cccc4F)cc3)c2C(F)(F)F)n1 [compound 22] | 95.6 ± 8.5 | 38.6 ± 4.3 | MLS9 stability (residual substrate) [1]: >99% ^b; cytotoxicity [2]: not cytotoxic; IC50 [4]: 3.1 ± 1.4 µM
17 | COc1ccccc1NS(=O)(=O)c1cc(C(=O)Nc2ccc(-n3ncc(-c4nc(C)no4)c3C(F)(F)F)cc2)ccc1C [compound 36] |  | 59.9 ± 4.2 | 
18 | Cc1noc(-c2cnn(-c3ccc(NC(=O)c4c(C)cccc4F)cc3)c2C(F)(F)F)n1 [compound 21] |  | 56.7 ± 1.3 | 
19 | Cc1noc(-c2cnn(-c3ccc(NC(=O)c4snnc4C)cc3)c2C(F)(F)F)n1 [compound 33] | 59.1 ± 6.3 | 46.5 ± 2.8 | cytotoxicity at 24 h, 10 µM [3]: > 25%
20 | CCOC(=O)c1cnn(-c2ccc(NC(=O)C(Cl)=C(Cl)Cl)cc2)c1C(F)(F)F [Pyr3, reference compound] | 28.6 ± 0.5 | 8.9 ± 0.6 | IC50 [4]: 0.5 ± 0.1 µM
21 | Cc1noc(-c2cnn(-c3ccc(NC(=O)Cc4ccc([N+](=O)[O-])cc4)cc3)c2C(F)(F)F)n1 [compound 28] |  | 108 ± 3.9 | 
22 | COc1ccc(OC)c(-c2ccc(NC(=O)c3ccncc3F)cc2)c1 [Synta66, reference compound] | 75.8 ± 8 | 9.2 ± 1.7 | IC50 [4]: 0.2 ± 0.3 µM
23 | CCCC(C)OC(=O)c1cnn(-c2ccc(-n3cc(-c4cccc(C(=O)O)c4)nn3)cc2)c1C(F)(F)F (centres unmarked) [CIC-37, reference compound] | 93.6 ± 4.6 | 17.5 ± 1.6 | IC50 [4]: 4.4 ± 1.2 µM
24 | Cc1noc(-c2cnn(-c3ccc(NC(=O)c4ccc5nc[nH]c5c4)cc3)c2C(F)(F)F)n1 [compound 31] | 56.5 ± 2.5 | 47.4 ± 1 | cytotoxicity at 24 h, 10 µM [3]: > 25%
